Experimental findings from patent US7541368B2, “Pyrazoles as inhibitors of tumor necrosis factor” (Aventis Pharmaceuticals Inc., priority 2003, dated 2009) are described below.

This experiment has as its system TNF-alpha release in THP-1 cells. Kind of experiment: LPS-induced TNF-alpha release in THP-1 cells. It is filed as cell-based. The following applies: Homo sapiens, THP-1, LPS-stimulated THP-1 cells; read-out: 50% inhibition in the LPS-induced TNF-alpha release in THP-1 cells assay at concentrations within the range. A digest of the protocol: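 TNF-alpha in supernatants was quantified by sandwich ELISA against a log/log recombinant standard curve (0.125-16 ng/ml). Before this, THP-1 cells (1×10^6 cells/ml, serum-reduced) received compound at 1×10^−9 to 1×10^−6 M in 0.3% DMSO for 1 h, then LPS 20 μg/ml for 18 h.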
For the compound `COc1ccc2c(CC(=O)N3C4CCC3CC(Cc3cccc(NC(=O)Nc5cc(C(C)(C)C)nn5-c5ccc(C)cc5)c3)C4)coc2c1` (centres unmarked) [Compound A618, 1-(5-tert-Butyl-2-p-tolyl-2H-pyrazol-3-yl)-3-(3-{8-[2-(6-methoxy-benzofuran-3-yl)-acetyl]-8-aza-bicyclo[3.2.1]oct-3-ylmethyl}-phenyl)-urea], the IC50 is 10 to 500 nM. With `CO[C@H](C(=O)N1CCC(Cc2cccc(NC(=O)Nc3cc(C(C)(C)C)nn3-c3ccc(C)cc3)c2)CC1)c1ccccc1` [Compound A4, 1-(5-tert-Butyl-2-p-tolyl-2H-pyrazol-3-yl)-3-{3-[1-((S)-2-methoxy-2-phenyl-acetyl)-piperidin-4-ylmethyl]-phenyl}-urea], the IC50 was 10 to 500 nM.

Consider `COc1ccc(C)cc1S(=O)(=O)N1CCC(Cc2ccc(NC(=O)Nc3cc(C(C)(C)C)nn3-c3ccc(C)cc3)cc2)CC1` [Compound A592, 1-(5-tert-Butyl-2-p-tolyl-2H-pyrazol-3-yl)-3-{4-[1-(2-methoxy-5-methyl-benzenesulfonyl)-piperidin-4-ylmethyl]-phenyl}-urea], for which the IC50 is 10 to 500 nM. With `Cc1ccc(-n2nc(C(C)(C)C)cc2NC(=O)Nc2ccc(CC3CCN(C(=O)CC4CCCC4)CC3)cc2)cc1` [Compound A349, 1-(5-tert-Butyl-2-p-tolyl-2H-pyrazol-3-yl)-3-{4-[1-(2-cyclopentyl-acetyl)-piperidin-4-ylmethyl]-phenyl}-urea] the figure was 10 to 500 nM.

With `Cc1ccc(-n2nc(C(C)(C)C)cc2NC(=O)Nc2ccc(CC3CCN(C(=O)c4ccc5cc[nH]c5c4)CC3)cc2)cc1` [Compound A362, 1-(5-tert-Butyl-2-p-tolyl-2H-pyrazol-3-yl)-3-{4-[1-(1H-indole-6-carbonyl)-piperidin-4-ylmethyl]-phenyl}-urea], the IC50 lay in the range of 10 to 500 nM.

As for `CC(=O)c1ccc(NC(=O)N2CCC(Cc3cccc(NC(=O)Nc4cc(C(C)(C)C)nn4-c4ccc(C)cc4)c3)CC2)cc1` [Compound A403, 4-{3-[3-(5-tert-Butyl-2-p-tolyl-2H-pyrazol-3-yl)-ureido]-benzyl}-piperidine-1-carboxylic acid (4-acetyl-phenyl)-amide], the IC50 was in the range of 10 to 500 nM. As to `COc1ccc(OCC(F)(F)F)c(C(=O)N2CCC(Cc3cccc(NC(=O)Nc4cc(C(C)(C)C)nn4-c4ccc(C)cc4)c3)CC2)c1` [Compound A132, 1-(5-tert-Butyl-2-p-tolyl-2H-pyrazol-3-yl)-3-(3-{1-[5-methoxy-2-(2,2,2-trifluoro-ethoxy)-benzoyl]-piperidin-4-ylmethyl}-phenyl)-urea], the IC50 fell in the range of 10 to 500 nM.

For the compound `Cc1ccc(-n2nc(C(C)(C)C)cc2NC(=O)Nc2ccc(CC3CCN(C(=O)c4cc(O)nc5ccccc45)CC3)cc2)cc1` [Compound A240, 1-(5-tert-Butyl-2-p-tolyl-2H-pyrazol-3-yl)-3-{4-[1-(2-hydroxy-quinoline-4-carbonyl)-piperidin-4-ylmethyl]-phenyl}-urea], the IC50 was in the range of 10 to 500 nM. With `COc1ccc(OCC(=O)N2CCC(Cc3cccc(NC(=O)Nc4cc(C(C)(C)C)nn4-c4ccc(C)cc4)c3)CC2)cc1` [Compound A121, 1-(5-tert-Butyl-2-p-tolyl-2H-pyrazol-3-yl)-3-(3-{1-[2-(4-methoxy-phenoxy)-acetyl]-piperidin-4-ylmethyl}-phenyl)-urea], the IC50 was 10 to 500 nM. `COc1cccc(C(=O)N2CCC(Cc3cccc(NC(=O)Nc4cc(C(C)(C)C)nn4-c4ccc(C)cc4)c3)CC2)c1OC` [Compound A21, 1-(5-tert-Butyl-2-p-tolyl-2H-pyrazol-3-yl)-3-{3-[1-(2,3-dimethoxy-benzoyl)-piperidin-4-ylmethyl]-phenyl}-urea]: the IC50 was 10 to 500 nM. As for `Cc1ccc(-n2nc(C(C)(C)C)cc2NC(=O)Nc2ccc(CC3CCN(S(=O)(=O)c4ccccc4Cl)CC3)cc2)cc1` [Compound A567, 1-(5-tert-Butyl-2-p-tolyl-2H-pyrazol-3-yl)-3-{4-[1-(2-chloro-benzenesulfonyl)-piperidin-4-ylmethyl]-phenyl}-urea], the IC50 was 10 to 500 nM. The same measure for `Cc1ccc(-n2nc(C(C)(C)C)cc2NC(=O)Nc2cccc(CC3CCN(C(=O)c4ccc(-c5cnco5)cc4)CC3)c2)cc1` [Compound A106, 1-(5-tert-Butyl-2-p-tolyl-2H-pyrazol-3-yl)-3-{3-[1-(4-oxazol-5-yl-benzoyl)-piperidin-4-ylmethyl]-phenyl}-urea]: 10 to 500 nM.

Regarding `Cc1ccc(-n2nc(C(C)(C)C)cc2NC(=O)Nc2ccc(CC3CCN(C(=O)c4ccc5cnccc5n4)CC3)cc2)cc1` [Compound A197, 1-(5-tert-Butyl-2-p-tolyl-2H-pyrazol-3-yl)-3-{4-[1-([1,6]naphthyridine-2-carbonyl)-piperidin-4-ylmethyl]-phenyl}-urea], the IC50 is 10 to 500 nM.

`COc1cccc(C(=O)N2CCC(Cc3ccc(NC(=O)Nc4cc(C(C)(C)C)nn4-c4ccc(C)cc4)cc3)CC2)c1OC` [Compound A212, 1-(5-tert-Butyl-2-p-tolyl-2H-pyrazol-3-yl)-3-{4-[1-(2,3-dimethoxy-benzoyl)-piperidin-4-ylmethyl]-phenyl}-urea]: the IC50 lay within 10 to 500 nM. As for `Cc1ccc(-n2nc(C(C)(C)C)cc2NC(=O)Nc2cccc(CC3CCN(C(=O)c4nccc5ccccc45)CC3)c2)cc1` [Compound A13, 1-(5-tert-Butyl-2-p-tolyl-2H-pyrazol-3-yl)-3-{3-[1-(isoquinoline-1-carbonyl)-piperidin-4-ylmethyl]-phenyl}-urea], the IC50 is 10 to 500 nM. The same measure for `COc1cc(OC)c(C(=O)N2CCC(Cc3ccc(NC(=O)Nc4cc(C(C)(C)C)nn4-c4ccc(C)cc4)cc3)CC2)c(OC)c1` [Compound A215, 1-(5-tert-Butyl-2-p-tolyl-2H-pyrazol-3-yl)-3-{4-[1-(2,4,6-trimethoxy-benzoyl)-piperidin-4-ylmethyl]-phenyl}-urea]: 10 to 500 nM. For the compound `COc1ccc(CC(=O)N2CCC(Cc3ccc(NC(=O)Nc4cc(C(C)(C)C)nn4-c4ccc(C)cc4)cc3)CC2)cc1` [Compound A319, 1-(5-tert-Butyl-2-p-tolyl-2H-pyrazol-3-yl)-3-(4-{1-[2-(4-methoxy-phenyl)-acetyl]-piperidin-4-ylmethyl}-phenyl)-urea], the IC50 was in the range of 10 to 500 nM.

With `Cc1ccc(-n2nc(C(C)(C)C)cc2NC(=O)Nc2cccc(CC3CCN(C(=O)Cc4ccsc4)CC3)c2)cc1` [Compound A190, 1-(5-tert-Butyl-2-p-tolyl-2H-pyrazol-3-yl)-3-{3-[1-(2-thiophen-3-yl-acetyl)-piperidin-4-ylmethyl]-phenyl}-urea], the IC50 was in the range of 10 to 500 nM. For the compound `Cc1ccc(-n2nc(C(C)(C)C)cc2NC(=O)Nc2ccc(CC3CCN(C(=O)c4csc(-c5cccnc5)n4)CC3)cc2)cc1` [Compound A225, 1-(5-tert-Butyl-2-p-tolyl-2H-pyrazol-3-yl)-3-{4-[1-(2-pyridin-3-yl-thiazole-4-carbonyl)-piperidin-4-ylmethyl]-phenyl}-urea], the IC50 was in the range of 10 to 500 nM. The same measure for `COc1ccccc1CC(=O)N1CCC(Cc2cccc(NC(=O)Nc3cc(C(C)(C)C)nn3-c3ccc(C)cc3)c2)CC1` [Compound A50, 1-(5-tert-Butyl-2-p-tolyl-2H-pyrazol-3-yl)-3-(3-{1-[2-(2-methoxy-phenyl)-acetyl]-piperidin-4-ylmethyl}-phenyl)-urea]: 10 to 500 nM.
